From US10016382B2, “Method for decreasing skeletal muscle damage and/or oxidative stress in mammals” (LONZA INC., priority 2014, dated 2018)

Assay: Food offered and food consumption (per day, per kg BW, per kg lean mass), Example 2 part one
Type: in vivo, dog
Method: The performance dogs were weighed at the beginning of the study and at one week intervals until the end of part one. Feed consumption and refusals were determined daily by weighing and recording the amount offered or refused. The quantity of food provided to each dog on a daily basis was adjusted based on the goal of maintaining the dog's minimum body weight throughout the study. The consumption per kg of lean mass was determined by dividing the mean lean mass of each group into its mean daily food consumption value at the initial and then the final body scans.

[1] = Ex.2 part one, 250 mg/d, 14 week study
[2] = Ex.2 part one, 250 mg/d, week 1

C[N+](C)(C)C[C@H](O)CC(=O)[O-] [L-carnitine]
Mean Food Intake Over 14 wk Duration/Lean Mass (Change, F): −2.46 g/d/kg Lean Mass
Mean Food Intake Over 14 wk Duration/Lean Mass (Change, M): −1.98 g/d/kg Lean Mass
Overall mean amount of food offered per day [1]: 677 g/day
Overall mean food intake per day [1]: 574 g/day
Mean food intake per kg lean mass (Ex.2 part one, 250 mg/d, Final body composition scan): 24.02 g/d/kg LM
Mean food intake per kg lean mass (Ex.2 part one, 250 mg/d, Initial body composition scan): 26.24 g/d/kg LM
Change in mean food intake per kg lean mass (Ex.2 part one, 250 mg/d, final minus initial over 14 wks): −2.22 g/d/kg LM
Amount of food consumed [2]: 618.25 g/day
Food consumption per kg body weight [2]: 20.96 g/d/kg BW
Intake of kcals of ME [2]: 83.83 kcal/d/kg BW
Amount of food consumed (Ex.2 part one, 250 mg/d, week 4): 629.43 g/day
Mean Food Intake Over 14 wk Duration/Lean Mass (Final, F): 27.46 g/d/kg Lean Mass
Mean Food Intake Over 14 wk Duration/Lean Mass (Final, M): 20.58 g/d/kg Lean Mass
Mean Food Intake Over 14 wk Duration/Lean Mass (Initial, F): 29.92 g/d/kg Lean Mass
Mean Food Intake Over 14 wk Duration/Lean Mass (Initial, M): 22.56 g/d/kg Lean Mass
Daily Food Intake (Week 1): 618.25 ± 22.33 g
Daily Food Intake (ME) (Week 1): 83.83 ± 1.85 kcal ME/d/kg BW
Daily Food Intake per kg BW (Week 1): 20.96 ± 0.46 g/d/kg BW
Daily Food Intake (Week 2): 608.79 ± 22.8 g
Daily Food Intake (ME) (Week 2): 85.21 ± 2.22 kcal ME/d/kg BW
Daily Food Intake per kg BW (Week 2): 21.3 ± 0.55 g/d/kg BW
Daily Food Intake (Week 3): 600.54 ± 19.89 g
Daily Food Intake (ME) (Week 3): 82.87 ± 2.34 kcal ME/d/kg BW
Daily Food Intake per kg BW (Week 3): 20.72 ± 0.58 g/d/kg BW
Daily Food Intake (Week 4): 629.43 ± 21.4 g
Daily Food Intake (ME) (Week 4): 86.54 ± 2.08 kcal ME/d/kg BW
Daily Food Intake per kg BW (Week 4): 21.64 ± 0.52 g/d/kg BW
Daily Food Intake (Week 5): 597.07 ± 18.65 g
Daily Food Intake (ME) (Week 5): 81.86 ± 1.82 kcal ME/d/kg BW
Daily Food Intake per kg BW (Week 5): 20.47 ± 0.45 g/d/kg BW
Daily Food Intake (Week 6): 579.11 ± 21.17 g
Daily Food Intake (ME) (Week 6): 78.87 ± 2.06 kcal ME/d/kg BW
Daily Food Intake per kg BW (Week 6): 19.72 ± 0.51 g/d/kg BW
Daily Food Intake (Week 7): 584.5 ± 18.91 g
Daily Food Intake (ME) (Week 7): 79.61 ± 1.97 kcal ME/d/kg BW
Daily Food Intake per kg BW (Week 7): 19.91 ± 0.49 g/d/kg BW
Daily Food Intake (Week 8): 547.14 ± 20.91 g
Daily Food Intake (ME) (Week 8): 74.21 ± 2.16 kcal ME/d/kg BW
Daily Food Intake per kg BW (Week 8): 18.55 ± 0.54 g/d/kg BW
Daily Food Intake (Week 9): 602.79 ± 23.4 g
Daily Food Intake (ME) (Week 9): 81.55 ± 2.2 kcal ME/d/kg BW
Daily Food Intake per kg BW (Week 9): 20.39 ± 0.55 g/d/kg BW
Daily Food Intake (Week 10): 580.04 ± 21.88 g
Daily Food Intake (ME) (Week 10): 78.76 ± 2.25 kcal ME/d/kg BW
Daily Food Intake per kg BW (Week 10): 19.69 ± 0.56 g/d/kg BW
Daily Food Intake (Week 11): 543.89 ± 19.79 g
Daily Food Intake (ME) (Week 11): 73.79 ± 2.09 kcal ME/d/kg BW
Daily Food Intake per kg BW (Week 11): 18.45 ± 0.52 g/d/kg BW
Daily Food Intake (Week 12): 493.68 ± 19.06 g
Daily Food Intake (ME) (Week 12): 66.64 ± 1.71 kcal ME/d/kg BW
Daily Food Intake per kg BW (Week 12): 16.66 ± 0.43 g/d/kg BW
Daily Food Intake (Week 13): 511.82 ± 22.64 g
Daily Food Intake (ME) (Week 13): 68.71 ± 2.06 kcal ME/d/kg BW
Daily Food Intake per kg BW (Week 13): 17.18 ± 0.51 g/d/kg BW
Daily Food Intake (Week 14): 543.5 ± 26.43 g
Daily Food Intake (ME) (Week 14): 73.21 ± 2.75 kcal ME/d/kg BW
Daily Food Intake per kg BW (Week 14): 18.3 ± 0.69 g/d/kg BW
